# Source: publication PMC3266934, “The Murine Coronavirus Hemagglutinin-esterase Receptor-binding Site: A Major Shift in Ligand Specificity through Modest Changes in Architecture” (PLoS Pathogens, 2012)
# Molecular target: T1, MHV-S HE ectodomain (HE / HE^0) (Murine hepatitis virus strain S, UniProt P31614)
# T1 construct: HEK293T or HEK293 GnTI(-); codon-optimized synthetic gene; homodimer
# Test: GC-MS of enzymatic de-O-acetylation
# Type: biochemical
# Conditions: sialate-4-O-acetylesterase site; thrombin-released ectodomain
# T1 sequence (P31614 25-403): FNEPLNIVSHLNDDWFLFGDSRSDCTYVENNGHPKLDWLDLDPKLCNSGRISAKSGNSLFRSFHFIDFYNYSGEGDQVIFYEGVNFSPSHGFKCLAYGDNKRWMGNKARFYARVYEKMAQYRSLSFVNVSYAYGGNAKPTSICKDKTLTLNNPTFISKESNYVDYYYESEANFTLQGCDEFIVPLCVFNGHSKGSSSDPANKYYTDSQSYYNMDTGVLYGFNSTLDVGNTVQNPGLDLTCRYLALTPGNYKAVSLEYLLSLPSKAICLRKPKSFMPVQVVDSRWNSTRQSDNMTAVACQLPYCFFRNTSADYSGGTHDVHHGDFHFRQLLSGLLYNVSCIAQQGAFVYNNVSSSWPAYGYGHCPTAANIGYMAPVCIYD
compound,measurement,value
"CO[C@]1(C(=O)O)C[C@H](OC(C)=O)[C@@H](NC(C)=O)[C@H]([C@H](O)[C@H](O)COC(C)=O)O1 [αNeu4,5,9Ac32Me, 5-N-acetyl-4,9-di-O-acetylneuraminic acid α-methylglycoside]",GC-MS of enzymatic de-O-acetylation,retained proper sialate-4-O-acetylesterase activity when assayed for substrate specificity with a synthetic di-O-acetylated Sia
